Data published in article PMC9181126, “Design, Synthesis, Molecular Docking Analysis and Biological Evaluations of 4-[(Quinolin-4-yl)amino]benzamide Derivatives as Novel Anti-Influenza Virus Agents” (International Journal of Molecular Sciences, 2022).

Key:
in vitro [1] = assay type: cell-based, canine; conditions: dog
Procedure: (§1) The 3-(4,5-dimethylthiazol-2-yl)-2,5-diphenyltetrazolium bromide (MTT) method was performed to assess the cytotoxicity of target compounds in MDCK cells and HEK293T cells. Firstly, MDCK cells or HEK293T cells were seeded into the 96-well plate. Then, the media containing test compounds replaced the growth media after 48 h. Incubate MDCK cells or HEK293T cells with test compounds for 72 h at 37 °C in a humidified 5% CO2 incubator. Later, MTT solution (5 mg/mL in PBS) was added into each well and plates were incubated for 4 h at 37 °C. Then, add a solubilization solution to lyse cells. Finally, absorbance was read at 620 nm using an ELISA plate reader (Tecan Sunrise) after 3 h of further incubation at 37 °C. We set the values obtained from the wells treated with only DMSO as 100% of viable cells.

MDCK cells = test: in vitro; assay type: cell-based, canine; conditions: dog, 72 h
Procedure: as §1

in vitro [2] = assay type: cell-based; conditions: human
Procedure: as §1

HEK293T cells = test: in vitro; assay type: cell-based; conditions: human, 72 h
Procedure: as §1

[3] = test system: influenza virus A/WSN/33 (H1N1); test: microbe, parasite or virus in culture; assay type: cell-based; conditions: MDCK, 72 h; for inhibition at 12.5 µM / inhibition at 25 µM / inhibition at 50 µM / inhibition at 100 µM: H1N1|WSN, read-out: Antiviral activity in CPE assay; for EC50: read-out: Cytopathic Effect Assay (A/WSN/33, H1N1) EC50
[4] = test system: influenza virus A/WSN/33 (H1N1); test: Plaque inhibition assay in MDCK cells; assay type: cell-based; conditions: MDCK, read-out: Plaque Inhibition Assay (A/WSN/33, H1N1) Inhibition Rate; for inhibition at 25 µM: concentration 25 µM; for inhibition at 100 µM: concentration 100 µM
PA-PB1 endonuclease [5] = test: Experimental PA-PB1 inhibitory activity of literature inhibitors (training and test set); assay type: biochemical, influenza virus; conditions: class of the experimental IC50
PA-PB1 endonuclease [6] = test system: PA-PB1 endonuclease; parameters: method as in supplement 1-7; conditions: training and test set compounds collected from literature; ref supplement 1-7; read-out: IC50 value Experimental (PA-PB1 endonuclease inhibitors); cited from earlier work

| Compound | CC50 at 72 h (in vitro [1]) | MDCK cells survival rate (MDCK cells; 12.5 µmol·L−1) | MDCK cells survival rate (MDCK cells; 25 µmol·L−1) | MDCK cells survival rate (MDCK cells; 50 µmol·L−1) | MDCK cells survival rate (MDCK cells; 100 µmol·L−1) | CC50 at 72 h (in vitro [2]) | HEK293T cells survival rate (HEK293T cells; 3.125 µmol·L−1) | HEK293T cells survival rate (HEK293T cells; 6.25 µmol·L−1) | HEK293T cells survival rate (HEK293T cells; 12.5 µmol·L−1) | HEK293T cells survival rate (HEK293T cells; 25 µmol·L−1) | HEK293T cells survival rate (HEK293T cells; 50 µmol·L−1) | HEK293T cells survival rate (HEK293T cells; 100 µmol·L−1) | inhibition at 12.5 µM [3] | inhibition at 25 µM [3] | inhibition at 50 µM [3] | inhibition at 100 µM [3] | EC50 [3] | melting point | Activity scale Experimental (PA-PB1 endonuclease [5]) | IC50 (PA-PB1 endonuclease [6]) | other results |
| --- | --- | --- | --- | --- | --- | --- | --- | --- | --- | --- | --- | --- | --- | --- | --- | --- | --- | --- | --- | --- | --- |
| Cc1ccc(N2CCN(C(=O)c3ccc(Nc4ccnc5cc(C(F)(F)F)ccc45)cc3)CC2)cc1 [Compound G14, [4-(P-tolyl)piperazin-1-yl]{4-{[7-(trifluoromethyl)quinolin-4-yl]amino}phenyl}methanone] | > 100 µM | 82.40±6.45% | 91.16±1.34% | 72.26±17.99% | 56.76±2.08% | > 100 µM | 105.78±7.34% | 95.00±7.82% | 89.38±1.59% | 80.67±2.20% | 76.77±5.03% | 77.49±2.55% | 16.43 ± 0.12% | 20.7 ± 3.82% | 23.4 ± 2.31% | 27.9 ± 2.05% | > 100 µM | 192 to 193.8 °C |  |  | inhibition at 25 µM [4]: < 10% |
| O=C(c1ccc(Nc2ccnc3cc(C(F)(F)F)ccc23)cc1)N1CCN(c2ccc(OC(F)(F)F)cc2)CC1 [Compound G15, {4-[4-(Trifluoromethoxy)phenyl]piperazin-1-yl}{4-{[7-(trifluoromethyl)quinolin-4-yl]amino}phenyl}methanone] | > 100 µM | 92.13±3.70% | 82.80±5.22% | 93.36±4.01% | 76.18±1.27% | > 100 µM | 105.64±1.62% | 104.46±0.45% | 93.38±3.30% | 103.00±3.15% | 89.01±2.08% | 81.59±1.91% | 36.9 ± 0.82% | 39.8 ± 4.98% | 35.3 ± 1.81% | 45.6 ± 5.12% | > 100 µM | 195.9 to 196.4 °C |  |  | inhibition at 50 µM ([4]; concentration 50 µM): 61% |
| CCOc1ccc(N2CCN(C(=O)c3ccc(Nc4ccnc5cc(C(F)(F)F)ccc45)cc3)CC2)cc1 [Compound G18, [4-(4-Ethoxyphenyl)piperazin-1-yl]{4-{[7-(trifluoromethyl)quinolin-4-yl]amino}phenyl}methanone] | > 100 µM | 112.99±2.36% | 111.55±2.20% | 138.28±6.89% | 104.99±4.01% | > 100 µM | 98.42±9.98% | 87.82±9.55% | 70.43±2.98% | 65.43±6.72% | 72.68±1.96% | 86.90±1.67% | 42.8 ± 0.57% | 39.5 ± 1.72% | 38.7 ± 4.29% | 35.5 ± 9.67% | > 100 µM | 210 to 212.3 °C |  |  | inhibition at 25 µM [4]: 16.3% |
| COc1ccccc1OCCNC(=O)c1ccc(Nc2ccnc3cc(C)ccc23)cc1 [Compound G21, N-[2-(2-Methoxyphenoxy)ethyl]-4-[(7-methylquinolin-4-yl)amino]benzamide] | > 100 µM | 83.41±3.67% | 80.18±7.27% | 93.28±9.93% | 88.84±3.59% | > 100 µM | 117.39±1.03% | 103.95±2.65% | 105.56±6.72% | 102.64±2.91% | 110.67±8.55% | 50.09±0.70% | 43 ± 7.31% | 39.8 ± 7.16% | 39.8 ± 6.58% | 50.1 ± 5.45% | > 100 µM | 209.6 to 210.6 °C |  |  | inhibition at 100 µM [4]: 11.5% |
| COc1ccccc1OCCNC(=O)c1ccc(Nc2ccnc3ccc(Br)cc23)cc1 [Compound G24, N-[2-(2-Methoxyphenoxy)ethyl]-4-[(6-bromoquinolin-4-yl)amino]benzamide] | > 100 µM | 97.97±11.82% | 71.98±13.89% | 87.44±3.70% | 105.38±8.08% | > 100 µM | 113.31±4.70% | 96.70±5.40% | 91.88±3.61% | 91.06±10.23% | 69.53±3.05% | 72.95±4.52% | 21 ± 2.86% | 19.2 ± 0.69% | 19.2 ± 0.42% | 18.4 ± 1.27% | > 100 µM | 240.5 to 241.3 °C |  |  | inhibition at 100 µM [4]: < 10% |
| COc1ccccc1OCCNC(=O)c1ccc(Nc2ccnc3ccc(Cl)cc23)cc1 [Compound G25, N-[2-(2-Methoxyphenoxy)ethyl]-4-[(6-chloroquinolin-4-yl)amino]benzamide] | > 100 µM | 92.58±5.23% | 85.96±5.73% | 86.83±3.19% | 79.32±11.90% | > 100 µM | 104.71±1.87% | 103.50±6.33% | 99.13±1.95% | 65.73±7.64% | 101.61±11.65% | 110.35±11.54% | 26.1 ± 0.67% | 25.7 ± 2.29% | 22.5 ± 1.29% | 22.3 ± 0.4% | > 100 µM | 247.7 to 248.4 °C |  |  | inhibition at 100 µM [4]: 0% |
| Cc1cc(-c2ccccc2)n2nc(C(=O)Nc3ccccc3C(N)=O)nc2n1 [Compound H05] |  |  |  |  |  |  |  |  |  |  |  |  |  |  |  |  |  |  | +++ (+++, IC50 10 to 100 μM (active)) | 11 µM |  |
| Cc1cc(-c2ccccc2)n2nc(C(=O)Nc3sc4c(c3C(=O)Nc3ccccn3)CCCCC4)nc2n1 [Compound H06] |  |  |  |  |  |  |  |  |  |  |  |  |  |  |  |  |  |  | +++ (+++, IC50 10 to 100 μM (active)) | 23 µM |  |
| Cc1cc(-c2ccccc2)n2nc(C(=O)Nc3sc4c(c3C(=O)O)CCCCC4)nc2n1 [Compound H08] |  |  |  |  |  |  |  |  |  |  |  |  |  |  |  |  |  |  | +++ (+++, IC50 10 to 100 μM (active)) | 19 µM |  |
| Cc1cc(-c2ccccc2)n2nc(C(=O)Nc3nc4ccccc4s3)nc2n1 [Compound H09] |  |  |  |  |  |  |  |  |  |  |  |  |  |  |  |  |  |  | +++ (+++, IC50 10 to 100 μM (active)) | 21 µM |  |
